Tests used:
[1] = test system: human cancer cell lines BCA-1 or ZR-75-1 (breast) and COL-1 (colon); test: antiproliferative activity in human cancer cell lines (thymidine incorporation); format: cell-based; settings: dose-response
Protocol: Dose-response studies are conducted with 1α,24(S)-(OH)2 D2 in a battery of human cancer cell lines. These cell lines include, but are not limited to, the following: BCA-1 or ZR-75-1 (breast) and COL-1 (colon), as described by Shieh, H. L. et al. Chem. Biol. Interact., vol. 81, pp. 35-55 (1982). In this study, appropriate solvents are used as negative controls.

[2] = test system: men and women with renal disease undergoing chronic hemodialysis; test: hypocalcemia and metabolic bone disease in chronic hemodialysis patients; format: in vivo, human; settings: greater than 3.0 μg/day, twelve months
Protocol: A twelve-month, double-blind, placebo-controlled clinical trial is conducted with thirty men and women with renal disease who are undergoing chronic hemodialysis. […] Efficacy is evaluated by pre- and post-treatment comparisons of the two patient groups with regard to (a) direct measurements of intestinal calcium absorption, (b) total body calcium retention, (c) radial and spinal bone mineral density, or (d) determinations of serum calcium. Safety is evaluated by regular monitoring of serum calcium.

[3] = target: T1, vitamin D serum binding protein (DBP) (Rattus norvegicus, UniProt P04276); test: affinity for vitamin D serum binding protein in vitamin D deficient rat serum
T1 sequence (P04276 17-476): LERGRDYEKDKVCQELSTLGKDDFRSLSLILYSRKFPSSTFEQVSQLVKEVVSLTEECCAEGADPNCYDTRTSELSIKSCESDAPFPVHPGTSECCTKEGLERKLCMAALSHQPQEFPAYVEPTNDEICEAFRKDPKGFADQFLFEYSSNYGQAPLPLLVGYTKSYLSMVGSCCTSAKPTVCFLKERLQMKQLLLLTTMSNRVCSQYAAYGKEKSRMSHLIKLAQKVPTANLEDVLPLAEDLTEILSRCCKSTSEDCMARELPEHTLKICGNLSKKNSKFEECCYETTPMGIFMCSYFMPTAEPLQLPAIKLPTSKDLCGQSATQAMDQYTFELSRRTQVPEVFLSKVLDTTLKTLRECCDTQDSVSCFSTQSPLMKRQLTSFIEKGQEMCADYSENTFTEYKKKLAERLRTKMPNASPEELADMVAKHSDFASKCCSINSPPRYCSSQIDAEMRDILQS
Excerpt: In addition, the weak binding by the DBP was indicative of more rapid clearance, allowing for low toxicity.

Human keratinocytes = test: epidermal cell differentiation and proliferation testing; format: cell-based; settings: 0.05 to 5 μg/ml, versus ethanol control cultures
Protocol: Human keratinocytes are cultured according to known modifications of the system originally described by Rheinwald and Green (Cell, vol. 6, p. 331 (1975)). The 1α,24(S)-dihydroxy vitamin D2, dissolved in ethanol, is added to cells to yield a variety of concentrations between 0.05 and 5 μg/ml with the ethanol concentration not to exceed 0.5% v/v. Control cultures are supplemented with ethanol at a final concentration of 0.5% v/v.
Differentiation and proliferation of epidermal cells in culture is examined by:
1. quantitation of cornified envelopes;
2. quantitation of cell density of cells attached to disks;
3. monitoring transglutaminase activity; or
4. monitoring DNA synthesis by incorporation of ^3 H-thymidine.

C=C1/C(=C\C=C2/CCC[C@]3(C)[C@@H]([C@H](C)/C=C/[C@@](C)(O)C(C)C)CC[C@@H]23)C[C@@H](O)C[C@@H]1O [1α,24(S)-(OH)2 D2, 1α,24(S)-dihydroxy vitamin D2] was tested, and the “antiproliferative activity, inhibition of thymidine incorporation” value [1] was “potent (and reversible) antiproliferative activity”, the “radial and spinal bone densities relative to baseline” value [2] was “stable radial and spinal bone densities” and the “total body calcium relative to baseline” value [2] was “stable values for total body calcium”. For the same molecule, the intestinal calcium absorption ([2]; double-isotope technique) was “significantly increases intestinal calcium absorption”, the “binding affinity for the vitamin D serum binding protein” value [3] was “relatively poor binding affinity” and the “binding to the vitamin D serum binding protein relative to 1,25-(OH)2 D3” value [3] was “more weakly than does 1,25-(OH)2 D3”. For the same molecule, the “DNA synthesis by incorporation of 3H-thymidine” value (Human keratinocytes) was “lower DNA synthesis”, the “cell density of cells attached to disks” value (Human keratinocytes) was “fewer attached cells” and the cornified envelopes (Human keratinocytes) was “more cornified envelopes”. For the same molecule, the transglutaminase activity (Human keratinocytes) was “higher transglutaminase activity”.

Source: patent publication US6211168A, “Methods for preparation and use of 1α,24 (S)-dihydroxy vitamin D2” (Bone Care International, Inc, priority 1995, dated 2001)
